In this assay the target is T1, Ba/F3 cell EGFR Exon20 ins NPH (Homo sapiens, UniProt P00533, INS773NPH).
T1 construct: expressed in transfected cells; host or cells: Ba/F3
Nature of the assay: Ba/F3 cell proliferation suppression, EGFR Exon20 ins NPH. As to conditions: GI50 class; Ba/F3 cell line with NPH inserted at Exon20 of EGFR; 72 hours. Format: cell-based. A digest of the protocol:
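Growth suppression determined as GI50 following 72 h exposure across 12 concentrations up to 50 um, with viability by luminescent ATP assay (CellTiter-Glo).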

Here are results for 17 compounds from US12157730B2, “Heteroaryl derivative, method for producing same, and pharmaceutical composition comprising same as effective component” (VORONOI INC., priority 2019, dated 2024).

On to `C=CC(=O)Nc1cc(Nc2cc(N3OCC[C@@H]3c3ccc(F)c(Cl)c3F)ncn2)c(OC)cc1N1CCC(N2CCN(CC)CC2)CC1` [compound 639, N-(5-((6-((R)-3-(3-chloro-2,4-difluorophenyl)isoxazolidine-2-yl)pyrimidine-4-yl)amino)-2-(4-(4-ethylpiperazine-1-yl)piperidine-1-yl)-4-methoxyphenyl) acrylamide], for which the “Ba/F3 (NPH) Activity” value is “A (GI50 < 50 nM)”. On to `C=CC(=O)Nc1cc(Nc2cc(N3OCC[C@@H]3c3ccccc3)ncn2)c(OC)cc1N1CCC(N2C[C@@H]3C[C@H]2CO3)CC1` [Example 54, N-(2-(4-((1S,4S)-2-oxa-5-oxabicyclo[2.2.1]heptane-5-yl)piperidine-1-yl)-4-methoxy-5-((6-((R)-3-phenylisoxazolidne-2-yl)pyrimidine-4-yl)amino)phenyl) acrylamide], for which the “Ba/F3 (NPH) Activity” value was “A (GI50 < 50 nM)”. The entry for `C=CC(=O)Nc1cc(Nc2cc(N3OCC[C@@H]3c3ccc(F)c(F)c3)ncn2)c(OC)cc1N1CCC(N2CCN(C3CCC3)CC2)CC1` [Example 186, N-(2-(4-(4-cyclobutylpiperazine-1-yl)piperidine-1-yl)-5-((6-((R)-3-(3,4-difluorophenyl)isoxazolidine-2-yl)pyrimidine-4-yl)amino)-4-methoxyphenyl) acrylamide] is “A (GI50 < 50 nM)”. On to `C=CC(=O)Nc1cc(Nc2cc(N3OCC[C@@H]3c3ccc(Cl)c(Cl)c3)ncn2)c(OC)cc1N(C)CCN(C)C` [compound 669, N-(5-((6-((R)-3-(3,4-dichlorophenyl)isoxazolidine-2-yl)pyrimidine-4-yl)amino)-2-((2-(dimethylamino)ethyl)(methyl)amino)-4-methoxyphenyl) acrylamide], for which the “Ba/F3 (NPH) Activity” value was “A (GI50 < 50 nM)”.

`C=CC(=O)Nc1cc(Nc2cc(N3OCC[C@@H]3c3cccc(Cl)c3Cl)ncn2)c(OC)cc1N1CCC(N2CCN(C(C)C)CC2)CC1` [compound 609, N-(5-((6-((R)-3-(2,3-dichlorophenyl)isoxazolidine-2-yl)pyrimidine-4-yl)amino)-2-(4-(4-isopropylpiperazine-1-yl)piperidine-1-yl)-4-methoxyphenyl) acrylamide]: the “Ba/F3 (NPH) Activity” value is “A (GI50 < 50 nM)”.

On to `C=CC(=O)Nc1cc(Nc2cc(N3OCC[C@@H]3c3ccc(Cl)cc3F)ncn2)c(OC)cc1N1CCC(N2CCN(C(C)=O)CC2)CC1` [compound 375, N-(2-(4-(4-acetylpiperazine-1-yl)piperidine-1-yl)-5-((6-((R)-3-(4-chloro-2-fluorophenyl)isoxazolidine-2-yl)pyrimidine-4-yl)amino)-4-methoxyphenyl) acrylamide], for which the “Ba/F3 (NPH) Activity” value was “A (GI50 < 50 nM)”. As for `C=CC(=O)Nc1cc(Nc2cc(N3OCC[C@@H]3c3cccc(Cl)c3)ncn2)c(OC)cc1N1CCC(N2CCN(C3CCC3)CC2)CC1` [Example 185, N-(5-((6-((R)-3-(3-chlorophenyl)isoxazolidine-2-yl)pyrimidine-4-yl)amino)-2-(4-(4-cyclobutylpiperazine-1-yl)piperidine-1-yl)-4-methoxyphenyl) acrylamide], the “Ba/F3 (NPH) Activity” value is listed as “A (GI50 < 50 nM)”. Turning to `C=CC(=O)Nc1cc(Nc2cc(N3OCC[C@@H]3Cc3ccccc3)ncn2)c(OC)cc1N1CCN(C)CC1` [compound 945, N-(5-((6-((S)-3-benzylisoxazolidine-2-yl)pyrimidine-4-yl)amino)-4-methoxy-2-(4-methylpiperazine-1-yl)phenyl)acrylamide], the “Ba/F3 (NPH) Activity” value is recorded as “A (GI50 < 50 nM)”.

On to `C=CCN1CCN(C2CCN(c3cc(OC)c(Nc4cc(N5OCC[C@@H]5c5cccc(Cl)c5F)ncn4)cc3NC(=O)C=C)CC2)CC1` [Example 90, N-(2-(4-(4-allylpiperazine-1-yl)piperidine-1-yl)-5-((6-(R-3-(3-chloro-2-fluorophenyl)isoxazolidine-2-yl)pyrimidine-4-yl)amino)-4-methoxyphenyl) acrylamide], for which the “Ba/F3 (NPH) Activity” value is on record as “A (GI50 < 50 nM)”.

Regarding `C=CC(=O)Nc1cc(Nc2cc(N3OCC[C@@H]3c3cc(F)cc(Cl)c3)ncn2)c(OC)cc1N1CCC(N2C[C@@H]3CCN(C)[C@@H]3C2)CC1` [compound 540, N-(5-((6-((R)-3-(3-chloro-5-fluorophenyl)isoxazolidine-2-yl)pyrimidine-4-yl)amino)-4-methoxy-2-(4-((3aS,6aS)-1-methylhexahydropyrrolo [3,4-b]pyrrole-5(1H)-yl)piperidine-1-yl)phenyl)acrylamide], the “Ba/F3 (NPH) Activity” value is given as “A (GI50 < 50 nM)”.

As to `C=CC(=O)Nc1cc(Nc2cc(N3OCC[C@@H]3c3cccc(Cl)c3)ncn2)c(OC)cc1N1CCC(N2C[C@@H](C)O[C@@H](C)C2)CC1` [compound 415, N-(5-((6-((R)-3-(3-chlorophenyl)isoxazolidine-2-yl)pyrimidine-4-yl)amino)-2-(4-((2S,6R)-2,6-dimethylmorpholino)piperidine-1-yl)-4-methoxyphenyl) acrylamide], the “Ba/F3 (NPH) Activity” value was “A (GI50 < 50 nM)”. The value for `C=CC(=O)Nc1cc(Nc2cc(N3OCC[C@@H]3c3cccc(C#N)c3)ncn2)c(OC)cc1N1CCN(C)CC1` [compound 393, N-(5-((6-((R)-3-(3-cyanophenyl)isoxazolidine-2-yl)pyrimidine-4-yl)amino)-4-methoxy-2-(4-methylpiperazine-1-yl)phenyl)acrylamide] was “B (50 nM ≤ GI50 < 500 nM)”; that for `C=CC(=O)Nc1cc(Nc2cc(N3OCC[C@@H]3c3cc(F)ccc3F)ncn2)c(OC)cc1N1CCC(N2CCN(C)CC2)CC1` [compound 765, N-(5-((6-((R)-3-(2,5-difluorophenyl)isoxazolidine-2-yl)pyrimidine-4-yl)amino)-4-methoxy-2-(4-(4-methylpiperazine-1-yl)piperidine-1-yl)phenyl)acrylamide] was “A (GI50 < 50 nM)”. The value for `C=CC(=O)Nc1cc(Nc2cc(N3OCC[C@@H]3c3ccc(F)c(Cl)c3F)ncn2)c(OC)cc1N1CCC(N2CCN(C3CCC3)CC2)CC1` [Example 193, N-(5-((6-((R)-3-(3-chloro-2,4-difluorophenyl)isoxazolidine-2-yl)pyrimidine-4-yl)amino)-2-(4-(4-cyclobutylpiperazine-1-yl)piperidine-1-yl)-4-methoxyphenyl) acrylamide] was “A (GI50 < 50 nM)”; that for `C=CC(=O)Nc1cc(Nc2cc(N3OCC[C@@H]3Cc3cccc(F)c3C)ncn2)c(OC)cc1N(C)CCN(C)C` [compound 1000, N-(2-((2-(dimethylamino)ethyl) (methyl)amino)-5-((6-((S)-3-(3-fluoro-2-methylbenzyl)isoxazolidine-2-yl)pyrimidine-4-yl)amino)-4-methoxyphenyl) acrylamide] was “A (GI50 < 50 nM)”. The value for `C=CC(=O)Nc1cc(Nc2cc(N3OCC[C@@H]3c3cc(F)cc(F)c3)ncn2)c(OC)cc1N1CCN(C)C[C@H]1C` [compound 918, N-(5-((6-((R)-3-(3,5-difluorophenyl)isoxazolidine-2-yl)pyrimidine-4-yl)amino)-2-((R)-2,4-dimethylpiperazine-1-yl)-4-methoxyphenyl) acrylamide] was “A (GI50 < 50 nM)”; that for `C=CC(=O)Nc1cc(Nc2cc(N3OCC[C@@H]3c3ccc(F)c(F)c3)ncn2)c(OC)cc1N1CCN(CC)CC1` [compound 460, N-(5-((6-((R)-3-(3,4-difluorophenyl)isoxazolidine-2-yl)pyrimidine-4-yl)amino)-2-(4-ethylpiperazine-1-yl)-4-methoxyphenyl) acrylamide] was “A (GI50 < 50 nM)”.
